Results from patent EP0471345B1, “Determination of biogenous amines” (BOEHRINGER MANNHEIM GMBH, priority 1990, dated 1992).

Assays:
Test in all cases: competitive ELISA: relative affinity and cross-reactivity of monoclonal antibodies against Histamin-ITCB
[1] = test system: monoklonaler Antikörper 1.17.44 (ECACC 90071901) gegen Histamin-ITCB; conditions: amount of Histamin-ITCB for 50 % signal drop (50 % IC) in ELISA; antibody 1.17.44
From the text: (§1) Zur Ermittlung der Relativen Affinität werden Kompetitionskurven mit dem homologen Antigen ermittelt und ausgewertet.
(§2) Mikrotiterplatten werden mit 100 »l pro well einer Lösung aus 10 »g Thermo-SA-Streptavidin/ml (Herstellung nach EP-A 0269 092) in Puffer pH 9,6 eine Stunde bei Raumtemperatur beschichtet. Die Platten werden mit 0,9% Natriumchloridlösung gewaschen. […] Darauf werden 100 »l Probe in PBS eine Stunde bei Raumtemperatur inkubiert und erneut mit 0,9 % Natriumchloridlösung gewaschen. Es folgt eine weitere Inkubation (1 Stunde bei Raumtemperatur) mit 100 »l/well einer Lösung von 150 mU/ml eines Schaf-anti-Maus-IgG-Peroxidase-Konjugats (Boehringer Mannheim GmbH, Best.-Nr. 821489) in PBS/O,5 % RSA. Nach einem weiteren Waschschritt mit 0,9 % Natriumchloridlösung wird die Peroxidaseaktivität durch Zugabe von 100 »l/well einer ABTS®-Lösung (100 mg ABTS; 3,25 mmol/l Natriumperborat; 39,8 mmol/l Citronensäure; 60 mmol/l Natriumphosphat; pH 4,4-4,5) 30 min bei Raumtemperatur und anschließender Extinktionsmessung bei 405 nm bestimmt.
(§3) Die Kreuzreaktion wurde anschließend mit folgender Formel berechnet: [formula] C = Konzentration des jeweiligen Antigens, die zur Erreichung von 50 % des maximalen Signals erforderlich ist.

[2] = test system: monoklonaler Antikörper 1.25.53 gegen Histamin-ITCB; conditions: amount of Histamin-ITCB for 50 % signal drop (50 % IC) in ELISA; antibody 1.25.53
From the text: as §1, §2, §3

[3] = test system: monoklonaler Antikörper 1.36.59 gegen Histamin-ITCB; conditions: amount of Histamin-ITCB for 50 % signal drop (50 % IC) in ELISA; antibody 1.36.59
From the text: as §1, §2, §3

[4] = test system: monoklonaler Antikörper 1.47.74 (ECACC 90071902) gegen Histamin-ITCB; conditions: amount of Histamin-ITCB for 50 % signal drop (50 % IC) in ELISA; antibody 1.47.74
From the text: as §1, §2, §3

[5] = test system: monoklonaler Antikörper 1.54.95 gegen Histamin-ITCB; conditions: amount of Histamin-ITCB for 50 % signal drop (50 % IC) in ELISA; antibody 1.54.95
From the text: as §1, §2, §3

[6] = test system: monoklonaler Antikörper 1.68.168 gegen Histamin-ITCB; conditions: amount of Histamin-ITCB for 50 % signal drop (50 % IC) in ELISA; antibody 1.68.168
From the text: as §1, §2, §3

[7] = test system: monoklonaler Antikörper 1.83.201 gegen Histamin-ITCB; conditions: amount of Histamin-ITCB for 50 % signal drop (50 % IC) in ELISA; antibody 1.83.201
From the text: as §1, §2, §3

[8] = test system: monoklonaler Antikörper 1.97.235 gegen Histamin-ITCB; conditions: amount of Histamin-ITCB for 50 % signal drop (50 % IC) in ELISA; antibody 1.97.235
From the text: as §1, §2, §3

O=C(O)c1cccc(NC(=S)NCCc2c[nH]cn2)c1 [Histamin-ITCB, N-(3-Carboxyphenyl)-N'-[2-(4-imidazolyl)ethyl]thioharnstoff]
Relative Affinität zu Histamin-ITCB [1]: 0,5 ng/ml | Relative Affinität zu Histamin-ITCB [2]: 1 ng/mL | Relative Affinität zu Histamin-ITCB [3]: 1 ng/mL | Relative Affinität zu Histamin-ITCB [4]: 0,8 ng/ml | Relative Affinität zu Histamin-ITCB [5]: 1,5 ng/ml | Relative Affinität zu Histamin-ITCB [6]: 1,4 ng/ml | Relative Affinität zu Histamin-ITCB [7]: 0,75 ng/ml | Relative Affinität zu Histamin-ITCB [8]: 1,5 ng/ml
